BindingDB's records for doi:10.1021/jm00150a026 (1985)

Biological target: Dihydrofolate reductase (Escherichia coli, UniProt P0ABQ4)
Assay: Inhibition of Escherichia coli dihydrofolate reductase.

Sequence of Dihydrofolate reductase (P0ABQ4 whole entry, looked up): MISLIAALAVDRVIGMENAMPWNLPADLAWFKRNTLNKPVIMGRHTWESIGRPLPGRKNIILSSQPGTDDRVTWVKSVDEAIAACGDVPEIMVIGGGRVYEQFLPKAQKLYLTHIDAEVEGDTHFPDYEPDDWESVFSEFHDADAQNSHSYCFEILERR

Compound | Ki [nM]
CC1(C)N=C(N)N=C(N)N1c1cccc(COc2cccc(NC(N)=O)c2)c1 [{3-[3-(4,6-Diamino-2,2-dimethyl-2H-[1,3,5]triazin-1-yl)-benzyloxy]-phenyl}-urea] | 1230
CCc1cccc(OCc2cccc(N3C(N)=NC(N)=NC3(C)C)c2)c1 [1-[3-(3-Ethyl-phenoxymethyl)-phenyl]-6,6-dimethyl-1,6-dihydro-[1,3,5]triazine-2,4-diamine] | 1120
CC1(C)N=C(N)N=C(N)N1c1cccc(OCc2ccc(Cl)c(Cl)c2)c1 | 708
Cc1cccc(OCc2cccc(N3C(N)=NC(N)=NC3(C)C)c2)c1 [6,6-Dimethyl-1-(3-m-tolyloxymethyl-phenyl)-1,6-dihydro-[1,3,5]triazine-2,4-diamine] | 537
CCCCCCCCCCCCCCOc1cccc(N2C(N)=NC(N)=NC2(C)C)c1 [6,6-Dimethyl-1-(3-tetradecyloxy-phenyl)-1,6-dihydro-[1,3,5]triazine-2,4-diamine] | 1410
CC1(C)N=C(N)N=C(N)N1c1cccc(COc2cccc(C#N)c2)c1 [3-[3-(4,6-Diamino-2,2-dimethyl-2H-[1,3,5]triazin-1-yl)-benzyloxy]-benzonitrile] | 891
CC1(C)N=C(N)N=C(N)N1c1cccc(COc2cccc(CO)c2)c1 [{3-[3-(4,6-Diamino-2,2-dimethyl-2H-[1,3,5]triazin-1-yl)-benzyloxy]-phenyl}-methanol] | 646
CCCCCCCCCCCCOc1cccc(N2C(N)=NC(N)=NC2(C)C)c1 | 1320
CC(C)(C)c1cccc(OCc2cccc(N3C(N)=NC(N)=NC3(C)C)c2)c1 | 871
CC1(C)N=C(N)N=C(N)N1c1cccc(COc2cccc(Cl)c2)c1 [1-[3-(3-Chloro-phenoxymethyl)-phenyl]-6,6-dimethyl-1,6-dihydro-[1,3,5]triazine-2,4-diamine] | 977
CCCCCCCCCCCOc1cccc(N2C(N)=NC(N)=NC2(C)C)c1 [6,6-Dimethyl-1-(3-undecyloxy-phenyl)-1,6-dihydro-[1,3,5]triazine-2,4-diamine] | 646
CC1(C)N=C(N)N=C(N)N1c1cccc(COc2cccc(NC(N)=S)c2)c1 | 676
COc1cccc(OCc2cccc(N3C(N)=NC(N)=NC3(C)C)c2)c1 [1-[3-(3-Methoxy-phenoxymethyl)-phenyl]-6,6-dimethyl-1,6-dihydro-[1,3,5]triazine-2,4-diamine] | 955
